Experimental data taken from US20230094076A1, “COMBINATION THERAPY” (GlaxoSmithKline Intellectual Property Development Limited, priority 2016, published 2023).
Read-outs that look alike come from different tables or passages of the source.

Assays:
[1] = system: Toledo (human DLBCL) xenograft; details: for Body weight Difference (vs. vehicle) / Regression: Toledo (DLBCL), Day 28
[2] = system: Toledo (human DLBCL) xenograft; details: for Body weight Difference (vs. vehicle): Toledo (DLBCL), Day 25
PRMT6 = PRMT6 (Homo sapiens, UniProt Q96LA8); experiment: PRMT family radioactive assay; format: biochemical
SHI-1 = details: SHI-1, AML subtype M5, 6-day
Method: (§1) The growth of all cell lines was evaluated over time across a wide range of seeding densities to identify conditions that permitted proliferation throughout the entire 6-day assay. Cells were plated at the optimal seeding density and after overnight incubation, a 20-point 2-fold titration of compound was added and plates were incubated for 6 days. A replicate plate of cells was harvested at the time of compound addition to quantify the starting number of cells (T0). Values obtained after the 6 day treatment were expressed as a function of the T0 value and plotted against compound concentration. The T0 value was normalized to 100% and represents the number of cells at the time of compound addition. The data were fit with a 4 parameter equation to generate a concentration response curve and the growth IC50 (gIC50) was determined. The gIC50 is the midpoint of the ‘growth window’, the difference between the number of cells at the time of compound addition (To) and the number of cells after 6 days (DMSO control). The growth-death assay can be used to quantify the net population change, clearly defining cell death (cytotoxicity) as fewer cells compared to the number at the time of compound addition (T0).

MV-4-11 = details: MV-4-11, AML subtype M5, 6-day
Method: as §1

CAKI-1 = details: CAKI-1, ccRCC, 6-day
Method: as §1

769-P = details: ccRCC, 6-day
Method: as §1

SK-NEP-1 = details: SK-NEP-1, Wilm's, 6-day
Method: as §1

SK-MEL-2 = details: SK-MEL-2, melanoma, 6-day
Method: as §1

Breast cancer cell lines = details: percent of cell lines, 29 cell lines
Method: as §1

NOMO-1 = details: NOMO-1, AML subtype M5, 6-day
Method: as §1

KASUMI- = details: AML subtype M2, 6-day
Method: as §1

SW156 = details: SW156, ccRCC, 6-day
Method: as §1

[3] = system: Bladder cancer cell lines; details: 18 cell lines
Method: as §1

CAKI-2 = details: CAKI-2, ccRCC, 6-day
Method: as §1

[4] = system: human renal cell carcinoma xenografts (ACHN); details: for Body weight Difference (vs. vehicle) / Regression: ACHN (ccRCC)
[5] = system: arginine methylation (ADMA, MMA, SDMA) in Toledo cells; experiment: Western analysis of arginine methylation, time course; format: cell-based, human; details: 0.4 μM
Method: (B) Representative western blots of arginine methylation marks. Regions quantified are denoted by black bars on the right of the gel.
As predicted, ADMA methylation decreased while MMA increased upon compound exposure (FIG. 12). […] Given the detection of numerous substrates with varying kinetics, and variability of ADMA levels among DMSO-treated samples, both the full lane and a prominent 45 kDa band were characterized to assess ADMA. Increases in MMA were apparent by 24 hours and near maximal by 48 hours while decreases in the 45 kDa ADMA band required 72-96 hours to achieve maximal effect. Increases in SDMA were apparent after 48 hours of compound exposure and continued to increase through 120 hours, consistent with the potential switch from conversion of MMA to ADMA by Type I PRMTs to SDMA by Type II PRMTs (FIG. 12).

OCI-Ly1 = system: OCI-Ly1
Excerpt: (§2) FIG. 18: Propidium iodide FACS analysis of cell cycle in human lymphoma cell lines. […] Data represents the average±SEM of biological replicates, n=2.

U2932 = system: U2932
Excerpt: as §2

Toledo = system: Toledo
Excerpt: as §2

PRMT9 = PRMT9 (Homo sapiens, UniProt Q6P2P2); experiment: PRMT family radioactive assay; format: biochemical; details: 60 minute SAM:Enzyme:Compound A preincubation
PRMT8 = PRMT8 (Homo sapiens, UniProt Q9NR22); experiment: PRMT family radioactive assay; format: biochemical
ccRCC cell lines = details: only at highest concentration
[6] = 60 minute SAM:Enzyme:Compound A preincubation
[7] = 600 QD mg/kg oral, arm terminated at day 31

PRMT8, sequence (Q9NR22 whole entry): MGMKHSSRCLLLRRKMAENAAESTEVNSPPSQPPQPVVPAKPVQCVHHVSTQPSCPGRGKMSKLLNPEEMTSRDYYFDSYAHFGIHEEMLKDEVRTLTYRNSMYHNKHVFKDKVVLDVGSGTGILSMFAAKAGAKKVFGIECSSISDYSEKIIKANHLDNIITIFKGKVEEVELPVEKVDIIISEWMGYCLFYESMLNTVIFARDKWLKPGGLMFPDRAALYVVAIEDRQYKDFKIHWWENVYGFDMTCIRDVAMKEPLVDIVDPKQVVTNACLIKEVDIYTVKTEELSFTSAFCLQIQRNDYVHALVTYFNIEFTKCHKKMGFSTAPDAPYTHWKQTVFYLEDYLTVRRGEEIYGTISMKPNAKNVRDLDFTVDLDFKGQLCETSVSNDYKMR
PRMT6, sequence (Q96LA8 whole entry): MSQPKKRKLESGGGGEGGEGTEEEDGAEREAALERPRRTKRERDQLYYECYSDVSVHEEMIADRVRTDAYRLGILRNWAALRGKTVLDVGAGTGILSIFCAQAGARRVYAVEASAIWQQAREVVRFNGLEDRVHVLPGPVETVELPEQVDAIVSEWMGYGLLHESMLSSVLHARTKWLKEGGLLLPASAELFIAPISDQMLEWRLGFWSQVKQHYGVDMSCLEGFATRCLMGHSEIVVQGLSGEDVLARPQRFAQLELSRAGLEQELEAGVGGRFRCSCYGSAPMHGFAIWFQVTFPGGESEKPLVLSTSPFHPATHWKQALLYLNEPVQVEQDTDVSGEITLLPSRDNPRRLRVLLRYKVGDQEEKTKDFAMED
PRMT9, sequence (Q6P2P2 whole entry): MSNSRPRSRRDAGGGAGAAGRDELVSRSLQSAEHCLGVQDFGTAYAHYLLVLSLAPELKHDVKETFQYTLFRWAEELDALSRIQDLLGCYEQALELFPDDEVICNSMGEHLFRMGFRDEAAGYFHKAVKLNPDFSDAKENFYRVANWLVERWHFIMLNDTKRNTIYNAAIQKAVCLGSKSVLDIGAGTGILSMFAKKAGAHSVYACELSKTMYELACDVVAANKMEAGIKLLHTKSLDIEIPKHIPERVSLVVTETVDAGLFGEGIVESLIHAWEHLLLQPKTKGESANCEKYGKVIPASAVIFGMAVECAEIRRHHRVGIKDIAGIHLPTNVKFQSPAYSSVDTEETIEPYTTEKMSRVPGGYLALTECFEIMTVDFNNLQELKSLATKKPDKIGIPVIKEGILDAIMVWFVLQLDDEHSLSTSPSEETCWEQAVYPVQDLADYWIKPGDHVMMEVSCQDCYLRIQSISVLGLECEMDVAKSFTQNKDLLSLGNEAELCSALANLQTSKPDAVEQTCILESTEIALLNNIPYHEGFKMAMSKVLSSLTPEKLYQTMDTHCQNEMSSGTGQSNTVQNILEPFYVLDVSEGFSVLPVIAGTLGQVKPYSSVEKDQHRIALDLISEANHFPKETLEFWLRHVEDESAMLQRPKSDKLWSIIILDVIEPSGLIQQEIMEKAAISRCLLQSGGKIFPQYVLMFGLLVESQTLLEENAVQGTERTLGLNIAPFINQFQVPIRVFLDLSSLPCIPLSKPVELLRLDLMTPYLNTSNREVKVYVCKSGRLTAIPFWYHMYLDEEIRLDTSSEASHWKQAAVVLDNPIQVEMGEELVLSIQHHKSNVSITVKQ

## CCOCC1(COCC)CCC(c2n[nH]cc2CN(C)CCNC)CC1 [Compound A]
[1]; 150 QD mg/kg oral
  Body weight Difference (vs. vehicle): −4%
[1]; 300 QD mg/kg oral
  Body weight Difference (vs. vehicle): −3%
  Regression: 37%
[1]; 450 QD mg/kg oral
  Body weight Difference (vs. vehicle): −8%
  Regression: 58%
[1]; 600 QD mg/kg oral
  Body weight Difference (vs. vehicle): −7%
  Regression: 62%
[1]; Toledo xenograft, oral daily, 28 days
  doses at which regressions were observed: ≥ 300 mg/kg
[1]; any dose group, 150-600 mg/kg daily
  body weight loss: no significant body weight loss
[2]; 37.5 QD mg/kg oral
  Body weight Difference (vs. vehicle): −5%
[2]; 75 BID mg/kg oral
  Body weight Difference (vs. vehicle): −4%
[2]; 75 QD mg/kg oral
  Body weight Difference (vs. vehicle): −5%
[2]; 150 QD mg/kg oral
  Body weight Difference (vs. vehicle): −7%
[2]; any dose group, 37.5-150 mg/kg QD or 75 mg/kg BID
  body weight loss: No significant body weight loss
PRMT6; [6]
  inhibition of activity: inhibited the activity
PRMT6; increasing preincubation times
  time dependence of inhibition: time dependent inhibitor
SHI-1
  gIC100: 29.33 ± 0.02 µM
SHI-1; negative = cell death
  Ymin − T0: 292.0
MV-4-11
  gIC100: 14.55 ± 4.27 µM
MV-4-11; negative = cell death
  Ymin − T0: 565.6
CAKI-1
  Ymin − T0: 178.7
769-P
  Ymin − T0: 119.0
SK-NEP-1
  Ymin − T0: 25.3
SK-MEL-2
  Ymin − T0: 35.9
  gIC100: 22.37 µM
Breast cancer cell lines
  % Cytotoxic: 10%
  % gIC100 < 2: 0%
NOMO-1
  gIC100: 29.33 ± 0.00 µM
NOMO-1; negative = cell death
  Ymin − T0: 259.1
KASUMI-
  gIC100: 18.88 ± 10.55 µM
KASUMI-; negative = cell death
  Ymin − T0: −17.7
SW156
  Ymin − T0: 346.7
[3]; 6-day proliferation
  Median gIC100: 29.33 µM
[3]; percent of cell lines
  % Cytotoxic: 0%
  % gIC100 < 2: 0%
CAKI-2
  Ymin − T0: 169.6
[4]; 600 mg/kg daily
  body weight loss: Significant body weight loss
[4]; 150 QD mg/kg oral, Day 59
  Body weight Difference (vs. vehicle): −3%
[4]; 300 QD mg/kg oral, Day 59
  Body weight Difference (vs. vehicle): −4%
  Regression: 2%
[4]; 450 QD mg/kg oral, Day 59
  Body weight Difference (vs. vehicle): −7%
  Regression: 15%
[4]; [7]
  Body weight Difference (vs. vehicle): −17%
  Regression: 6%
[4]; ACHN xenograft, oral daily
  doses at which regressions were observed: ≥ 300 mg/kg
[5]
  time to maximal decrease of 45 kDa ADMA band: 72 to 96 h
  time to near maximal increase in MMA: ≤ 48 h
[5]; up to 120 hours
  change in ADMA methylation: decreased
  change in MMA: increased
  change in SDMA: increase
OCI-Ly1
  concentration giving accumulation of cells in sub-G1: 10 µM
U2932
  concentration giving accumulation of cells in sub-G1: 10 µM
Toledo; after 3 days
  concentration giving accumulation of cells in sub-G1: ≥ 1000 nM
Toledo; by day 7
  concentration giving increase in sub-G1 population: ≥ 100 nM
PRMT9
  inhibition of activity: failed to inhibit
PRMT8; [6]
  inhibition of activity: inhibited the activity
PRMT8; increasing preincubation times
  time dependence of inhibition: time dependent inhibitor
ccRCC cell lines
  concentration at which caspase cleavage occurred: 30 µM
